Measurements from US20050256174A1, “Raf kinase inhibitors” (priority 1998, published 2005).

Row | Compound | melting point [°C]
1 | COC(=O)c1cc(C(C)(C)C)sc1NC(=O)Nc1ccccc1 [Example 27, 5-tert-Butyl-2-(3-phenyl-ureido)-thiophene-3-carboxylic acid methyl ester] | 80 to 82
2 | CCc1nnc(NC(=O)Nc2sc(C(C)(C)C)cc2C(=O)OC)s1 [Example 28, 5-tert-Butyl-2-(3-(5-ethyl-[1,3,4]thiadiazol-2-yl)-ureido)-thiophene-3-carboxylic acid methyl ester] | 206 to 208
3 | COC(=O)c1sc(C(C)C)cc1NC(=O)Nc1ccc(C)cc1 [Example 1, 5-Isopropyl-3-(3-p-tolyl-ureido)-thiophene-2-carboxylic acid methyl ester] | 93 to 95
4 | COC(=O)c1cc(C(C)(C)C)sc1NC(=O)Nc1ccc(C)cc1 [Example 26, 5-tert-Butyl-2-(3-p-tolyl-ureido)-thiophene-3-carboxylic acid methyl ester] | 109 to 111

Results, then the compound that gave them:

Row | melting point [°C] | Compound
5 | 49 to 51 | COC(=O)c1cc(C(C)C)sc1NC(=O)Nc1ccc(C)cc1 [Example 29, 5-Isopropyl-2-(3-p-tolyl-ureido)-thiophene-3-carboxylic acid methyl ester]
6 | 70 to 73 | COC(=O)c1cc(C(C)C)sc1NC(=O)Nc1ccc(C)s1 [Example 30, 5-Isopropyl-2-[3-(5-methyl-thiophen-2-yl)-ureido]-thiophene-3-carboxylic acid methyl ester]
